Data as given in US20250152580A1, “METHODS FOR TREATING IMMUNE DISEASES” (Ascentage Pharma (Suzhou) co., Ltd., priority 2022, published 2025).
Entries after “also recorded” stand apart in the source; their conditions may differ.

Assays:
Format in all cases: in vivo
[1] = system: LPS inhalation induced lung neutrophils infiltration model; experiment: LPS inhalation induced neutrophils infiltration model in C57BL/6 mice; details: Cpd. 4 50 mg/kg oral each day, Cpd. X 50 mg/kg iv twice a week, Cpd. XI 12 mg/kg iv twice a week, week 4-10, compared with Vehicle
Experimental: C57BL/6 mice (6-8 weeks old) were obtained from Shanghai LC Laboratory Animal Co. Ltd. Animals, housed and handled in a temperature-controlled environment with a 12-h light/12-h dark cycle. A total of 60 female C57BL/6J mice will be modeled by atomization inhalation LPS 3 times a week for 10 weeks (adjustments may be made according to animal health status). LPS concentration is at 0.7 mg/mL. On each day of challenge, animals in G1 will receive aerosol inhalation of PBS and intravenous injection of Vehicle; animals in G2 will receive aerosol inhalation of LPS and intravenous injection of Vehicle; animals in G3 will be given aerosol inhalation of LPS and intravenous injection of 50 mg/kg Cpd. X twice a week (D1/4) from week 4-10; animals in G4 will be given aerosol inhalation of LPS and intravenous injection of 12 mg/kg Cpd.XI twice a week (D1/4) from week 4-10; animals in G5 will be given aerosol inhalation of LPS and oral administration of 50 mg/kg Cpd. 4 each day from week 4-10; animals in G6 will be given aerosol inhalation of LPS and oral administration of dexamethasone 1 hour before each challenge. Lungs will be gently lavaged via the tracheal cannula with 0.8 mL of PBS containing 1% BSA and 0.6 mM EDTA 48 hr after the last LPS exposure. The procedure will be repeated twice with 0.8 mL of PBS containing 1% BSA and 0.6 mM EDTA. The bronchoalveolar lavage fluid (BALF) will be centrifuged at 300×g for 5 min at 4° C., the cell pellet will be resuspended in 1.5 mL PBS. Total numbers of neutrophils in BALF will be counted using a hemocytometer.

OVA induced asthma model = experiment: OVA (ovalbumin) induced asthma model in Balb/cA mice
Description: Ovalbumin (OVA)-sensitized and challenged BALB/c mice are widely used as an asthma model and are characterized by high levels of serum IgE, airway inflammation, epithelial hypertrophy, goblet cell hyperplasia, and AHR, which are similar to the features observed in human allergic asthma.
Female Balb/cA mice (8 weeks old) were obtained from Shanghai Jihui Laboratory Animal Co. Ltd. Animals were housed and handled in a temperature-controlled environment with a 12-h light/12-h dark cycle. A total of 66 mice were assigned to 6 groups by randomization based on body weight.
Mice in Group 2 are intraperitoneally immunized with OVA (25 μg) emulsified in Imject alum (2.0 mg of Al[OH]3) on day 1. During this sensitization phase, the mice produce anti-OVA IgE antibodies, which bind IgE receptors on mast cells. After this sensitization, the mice are intratracheally challenged with OVA from day 8 today 14, resulting in OVA cross-linked IgE on mast cells and leading to degranulating mast cells. Mice then develop clinical features of asthma. The mice in the Group 1 normal control group were sensitized and challenged with […] (without OVA).
Mice in Group 1 and Group 2 were treated with vehicle for 7 days (po, qd, from day 8 to day 14). Mice in Group 3 were treated with 50 mg/kg Cpd. X for 8 days (iv, biw, day 1 and day 4). Mice in Group 4 were treated with 30 mg/kg Cpd. 4 for 7 days (po, qd, from day 8 to day 14). Mice in Group 5 were treated with 100 mg/kg Cpd. 4 for 7 days (po, qd, from day 8 to day 14). 3 mg/kg dexamethasone was used as positive control which was orally administered to mice in Group 6 for 7 days (qd, from day 8 to day 14). The protocols and procedures involving the care and use of animals were approved by the Institutional Animal Care and Use Committee (IACUC) at KCI (Suzhou, China).
Airway responsiveness was determined invasively based on lung resistance.
After challenge with aerosolized methacholine. Briefly, mice were challenged with methacholine aerosol in increasing concentrations (0, 6.25, 12.5, and 25 mg/mL in saline) on day 13 by using the noninvasive pulmonary function instrument. Data on lung resistance were continuously collected, and mean values were selected to express changes in airway function and regarded as one form of inflammation expression. Data are presented as the airway stenosis index (penh).
Twenty-four hours after the final OVA challenge (on day 15), mice were killed, and BAL cells were collected by means of slow injection of ice-cold PBS into the trachea, which was repeated 3 times. Numbers of cells in BAL fluid were counted with a chamber. Number of eosinophils in a total of 100 cells was counted under a microscope. Results are expressed as percentage of eosinophils of BAL fluid.
Twenty-four hours after the final OVA challenge (on day 15), mice were killed, and the serum was collected. The OVA-specific IgE levels were measured with the method of enzyme linked immunosorbent assay (ELISA) according to manufacturer protocol.
Twenty-four hours after the final OVA challenge (on day 15), mice were killed, and the lung tissue samples were collected and fixed in 4% paraformaldehyde. Then, they were embedded in paraffin and cut into […] sections for histopathological analysis. Lung sections were then stained with hematoxylin and eosin (H&E) to calculate the inflammatory changes. The histopathological score was evaluated microscopically in a blinded manner. Five arbitrarily selected fields of each mouse were photographed with an optical microscope and the images were determined and analyzed in detail. […]

[2] = system: TNBS induced inflammatory bowel disease (IBD) model; experiment: TNBS induced inflammatory bowel disease (IBD) model in Balb/c mice; details: 50 mg/kg po qd, mesalamine day −1 to day 6, compared with Vehicle
Description: There are two kinds of IBD: Crohn's disease (CD) and ulcerative colitis (UC). TNBS administration results in a preclinical mouse model replicating clinical Crohn's disease.
Female Balb/c mice (8 weeks old) were obtained from Beijing Vital River Laboratory Animal Co. Ltd. Animals were housed and handled in a temperature-controlled environment with a 12-h light/12-h dark cycle. A total of 50 mice were assigned to 5 groups by randomization based on body weight.
On Day 0, the mice weighing 18-20 g were anesthetized with […] (Easycheck, M2910). The mice were further intra-rectally injected 100 μL 1.5% TNBS solution (final concentration 50% ethanol) in the vehicle group and other treatment groups. For the Sham group, the mice were intra-rectally injected with 50% ethanol at the same volume.
Mice in Group 1 and Group 2 were treated with vehicle for 8 days (po, qd, from day −1 to day 6). Mice in Group 3 were treated with 50 mg/kg Cpd. 4 for 8 days (preventive regimen, po, qd, from day −1 to day 6). Mice in Group 4 were treated with 50 mg/kg Cpd. 4 for 6 days (therapeutic regimen, po, qd, from day 1 to day 6). 50 mg/kg Mesalamine was used as positive control which was orally administered to mice in Group 5 for 8 days (preventive regimen, qd, from day −1 to day 6). The protocols and procedures involving the care and use of animals were approved by the Institutional Animal Care and Use Committee (IACUC) at WuxiApptec (Shanghai, China).
Clinical signs of IBD were assessed every day based on the score of disease activity index (DAI) which was evaluated from three parameters using a scoring system from 0 to 4: stool consistency (0, normal stool; 1, soft but still formed stool; 2, soft and not formed stool; 3, very soft and wet stool; 4, watery diarrhea), bleeding score (0, negative hemoccult; 1, weak positive hemoccult; 2, positive hemoccult; 3, blood trace in stool visible; 4, gross rectal bleeding) and body weight loss (0, no body weight loos; 1, 1-5% body weight loss; 2, 6-10% body weight loss; 3, 11-20% body weight loss; 4, >20% body weight loss).
At the end of induction with TNBS (day 7), the animals were euthanized, dissected and the entire colon was quickly removed and gently cleared of feces.
The entire colon was weighed, and the total length was measured. Colon weight gain and shortening is an indirect marker of inflammation. As expected, colon weight induced by TNBS increased to 336.8±25.15 mg. […] The TNBS-induced colon weight increasement were improved by Cpd. 4 treatment (202.4±3.95 mg for 50 mg/kg Cpd. 4 preventive therapy and 214.4±5.17 mg for 50 mg/kg Cpd. 4 therapeutic therapy) (FIG. 2).
At the end of induction with TNBS, the animals were euthanized, and blood was collected immediately by the heart punctures and used for whole blood cell analysis.
At the end of the study (day 7), the cell suspensions from sham control, model control and Cpd. 4 therapeutic treatment groups were obtained from mesenteric lymph nodes (MLN). Cells were stained with the following florescence-labelled antibodies: APC-Cy7-conjugated anti-mouse CD45, BV510-conjugated anti-mouse CD3e, AF700-conjugated anti-mouse CD8a, BUV395-conjugated anti-mouse CD4, BV421-conjugated anti-mouse CD25, FITC-conjugated anti-mouse Foxp3, BV650-conjugated anti-mouse IFN-γ, BV786-conjugated anti-mouse IL-17A, BB700-conjugated anti-mouse TNF-α, APC-conjugated anti-mouse B220, BV395-conjugated anti-mouse CD3e, BV605-conjugated anti-mouse CD11b, BB700-conjugated anti-mouse CD11c, AF488-conjugated anti-mouse MHCII, BV421-conjugated anti-mouse NK1.1, BV510-conjugated anti-mouse Ly6G, PE-Cy7-conjugated anti-mouse CD107a and PE-CF594-conjugated anti-mouse F4/80. All cells were primarily gated on single and live lymphocytes based on forward scatter (FCS), side scatter (SSC) and live/dead staining buffer. Samples were analyzed on a flow cytometer (BD LSRFortessa) to count the percentage of each subtype of lymphocytes. […]

[3] = system: IMQ induced psoriasis model; experiment: IMQ induced psoriasis model in Balb/c mice; details: Cpd. 4 100 mg/kg po qd day 0-6; tofacitinib 30 mg/kg po bid; compared with Vehicle
Description: Imiquimod (IMQ) is a ligand for TLRs (Toll-like receptors) of immune cells (including macrophages, monocytes and plasmacytoid dendritic cells), and therefore contributes to strong activation of the immune system.
Female Balb/c mice (7-8 weeks old) were obtained from B&K Universal Animal Co. Ltd. Animals were housed and handled in a temperature-controlled environment with a 12-h light/12-h dark cycle. A total of 36 mice were assigned to 4 groups by randomization based on body weight (6 mice in normal control group and 10 mice in other 3 groups).
At the beginning of the study on day 0, five groups were administered a daily topical dose of 80 mg of a cream preparation containing 5% IMQ on their hair-free backs to establish a model of IMQ-induced psoriasis for seven consecutive days. The G1 normal control group received appropriate vaseline.
Mice in Group 1 and Group 2 were treated with vehicle for 7 days (po, qd, from day 0 to day 6). Mice in Group 3 were treated with 100 mg/kg Cpd. 4 for 7 days (po, qd, from day 0 to day 6). Mice in Group 4 were treated with 30 mg/kg tofacitinib for 7 days (po, bid, from day 0 to day 6). The protocols and procedures involving the care and use of animals were approved by the Institutional Animal Care and Use Committee (IACUC) at KCI (Suzhou, China).
The severity of skin inflammation was monitored and graded using a modified human scoring system Psoriasis Area Severity Index (PASI). Scaling, thickness, and erythema were scored separately on a scale from 0 to 4:0, none; 1, slight; 2, moderate; 3, marked; and 4, very marked. The total score denotes severity of inflammation. Ear thickness of mice was measured every day from day 0 to day 7.
Ear thickness of mice was measured every day from day 0 to day 7. […] Compared with G1 normal control group, after IMQ treatment, ear swelling was observed indicated by increased ear thickness in G2 group reaching the maximal ear thickness to 0.40±0.02 mm on day 7. Cpd.

[4] = day 15, Cpd. 4 30 and 100 mg/kg po qd, Cpd. X 50 mg/kg iv biw, dexamethasone 3 mg/kg po qd, compared with Vehicle
[5] = Cpd. 4 preventive and therapeutic

Cc1c(S(C)(=O)=O)c(-c2cc(F)cc(N3CCN(c4ccc(NS(=O)(=O)c5ccc(N[C@H](CCN6CCC(C(=O)O)CC6)CSc6ccccc6)c(S(=O)(=O)C(F)(F)F)c5)cc4)CC3)c2)c(-c2ccc(Cl)cc2)n1C(C)C [Cpd. XI]
BALF neutrophils (infiltration in lung) [1]: significantly reduced | BALF neutrophils (infiltration in lung) ([1]; listed as Cpd.XI): significantly reducing the BALF neutrophils

Cc1c(S(C)(=O)=O)c(-c2cc(F)cc(N3CCN(c4ccc(NS(=O)(=O)c5ccc(N[C@H](CCN6CCC(C(=O)OCCCP(=O)(O)O)CC6)CSc6ccccc6)c(S(=O)(=O)C(F)(F)F)c5)cc4)CC3)c2)c(-c2ccc(Cl)cc2)n1C(C)C [Cpd. X]
BALF neutrophils (infiltration in lung) [1]: significantly reducing the BALF neutrophils; also recorded: significantly reduced | pathological score in lung tissues (H&E) (OVA induced asthma model; 50 mg/kg iv biw, day 15, vehicle 4.08±0.23): 2.58±0.15 | pathological score in lung tissues (in words) (OVA induced asthma model; Cpd. 4 and Cpd. X, compared with Vehicle): significantly ameliorated | percentage of eosinophils in BALF (OVA induced asthma model; [4]): downregulated markedly; also recorded: significantly downregulated | serum OVA-specific IgE (ELISA) (OVA induced asthma model; [4]): significantly reduced | airway stenosis index (penh), airway hyper-responsiveness (AHR) (OVA induced asthma model; methacholine challenge day 13, Cpd. 4 30 and 100 mg/kg po qd day 8-14, Cpd. X 50 mg/kg iv biw, dexamethasone 3 mg/kg po qd, compared with Vehicle): significant inhibitory activity; also recorded: significantly reduced

Nc1ccc(O)c(C(=O)O)c1 [mesalamine, Mesalamine, reference compound]
disease activity index (DAI), clinical score of IBD ([2]; Cpd. 4 preventive (day −1 to day 6) and therapeutic (day 1 to day 6) regimens): significantly lowered DAI | colon length (in words) [2, 5]: significantly increased the colon length | colon weight (in words) [2, 5]: significantly reduced the colon weight

C[C@@H]1CCN(C(=O)CC#N)C[C@@H]1N(C)c1ncnc2[nH]ccc12 [tofacitinib, reference compound]
PASI score (Psoriasis Area Severity Index) [3]: significantly lower PASI
